# In patent US20230265524A1, “IMMUNOGENIC RETROELEMENTS AND THEIR USE IN CANCER THERAPY” (UNIVERSITY HEALTH NETWORK, priority 2020, published 2023):
# Key:
# [1] = test system: HT29 colorectal cancer cell lines; assay: ISG relative expression in HT29 cells; assay type: cell-based, human; conditions: HT29, ADAR1 KD vs WT, 300 nM for 5 days
# Protocol: D) Interferon-stimulated genes (MDA5, ISG15 and DDX58) relative expression in ADAR1^WT and ADAR1^KD HT29 colorectal cancer cell lines treated with 300 nM 5-AZA-CdR for 5 days. Data are mean±s.e.m. (n=3 from three independent experiments). *P<0.05, **P<0.01, ***P<0.001, ****P<0.0001, Tukey-corrected two-way ANOVA.
# (§1) Based on these findings, we hypothesized that ADAR1 depletion would synergize with the viral mimicry response induced by DNMTi treatment. To assess how ADAR1 depletion affects 5-AZA-CdR treated samples, we performed RNA-seq analyses in patient-derived CRC cells. […] As a molecular read-out of dsRNA pattern recognition activation, we measured MAVS aggregation in the mitochondrial fraction of cell lysates^34. […] Taken together, our findings establish that ADAR1 acts as a negative feedback loop, restricting the viral mimicry response induced by DNMTi treatment in cancer cells.
# [2] = test system: H3K4me3 and H3K27ac upstream of treatment-induced IR-Alus; assay: genome-wide CUT&RUN of H3K4me3 and H3K27ac at treatment-induced IR-Alus; assay type: cell-based, human; conditions: DNMTi treatment
# Excerpt: D, Heatmaps and average CUT & RUN profiles of H3K4me3 (left) and H3K27ac (right) signal at −50 kb/+50 kb (Upstream/downstream) of the Treatment-induced IR-Alu pairs regions. The orientation was based on the transcriptional orientation in the MDA5-protected RNA-seq data
# Active promoters and enhancers are often marked by H3K4me3 and H3K27ac, respectively. […] Importantly, we assessed the DNA methylation status of these specific regulatory regions that became H3K4me3 marked upstream of the induced IR-Alus following epigenetic therapy and found the majority of these regions to be frequently methylated before treatment. We observed that 91% of these regions were either partially or fully methylated in the panel of 51 CRC cell lines (FIG. 6C) and 94% in the panel of 988 pan-cancer cell lines (FIG. 6D). Moreover, we observed that the DNA methylation status of these regulatory regions upstream of induced IR-Alus were inversely correlated (r=−0.23, p=7.58-13) with the expression of a panel of Interferon-Stimulated Genes (n=22 ISGs) from our viral mimicry signature^1 across the 988 pan-cancer cell lines (FIG. 6E).
# [3] = test system: patient-derived xenograft CRC cells; assay: subcutaneous patient-derived xenograft CRC tumour growth in NSG mice; assay type: in vivo; conditions: 0.5 mg kg-1 intraperitoneal
# Protocol: B, Schematic representation of in vivo experimental scheme of non-infected, ADAR1^WT, ADAR1^KDA and ADAR1^KDB patient-derived xenograft CRC cells injected subcutaneously into flanks of NSG mice (n=10 mice per group; 2 tumours per mouse). Arrows represent days of treatment (0.5 mg kg-1 5-AZA-CdR by intraperitoneal injection or vehicle).
# C, Tumour volume measured at the indicated time points. Arrows represent days of treatment. ADAR1^KDA 5-AZA-CdR (n=20 tumours) and ADAR1^KDB 5-AZA-CdR (n=18 tumours at day 12 and n=14 tumours at day15) compared with non-infected (NI) 5-AZA-CdR (n=19 tumours) cohort. Data are mean±s.e.m. ****P<0.0001, Tukey-corrected two-way ANOVA
# D, Colorectal cancer tumours dissected from Vehicle and 5-AZA-CdR cohorts at day 14 post-treatment are depicted for each condition (n=5) (NI=non-infected)
# E, Tumour weight for each group at the time of dissection (day 14 after treatment). Data are mean±s.d. ****P<0.0001, Tukey-corrected ordinary-one-way ANOVA.
# Finally, we sought to investigate whether ADAR1 inhibition would synergize with epigenetic therapy to increase the anti-tumour response. […] To examine the potential synergy in vivo, we injected ADAR1^KDA/B or wildtype patient-derived xenograft CRC cells subcutaneously into immune-deficient NOD.Cg-Prkdc (NSG) mice, and treated the mice with 5-AZA-CdR or vehicle (PBS) (FIG. 12B and FIG. 13A). […]
# [4] = test system: interferon stimulated genes (ISG15, DDX58 and IRF7); assay: interferon response / ISG expression by RNA-seq GSEA and qRT-PCR in patient-derived CRC cells; assay type: cell-based, human
# Excerpt: H, Geneset Enrichment Analysis showing an enrichment of the geneset ‘Hallmark_Interferon_Alpha_Response’ in ADAR1^KD 5-AZA-treated cells compared to ADAR1^WT 5-AZA-CdR treated cells.
# I, Interferon-responsive geneset enrichment score in mock-treated ADAR1^WT, 5-AZA-CdR-treated ADAR1^WT, mock-treated ADAR1^KD, and 5-AZA-CdR-treated ADAR1^KD conditions. Samples were collected 5, 14, and 24 days post-treatment.
# B, Kinetics of interferon stimulated genes (ISG15, DDX58 and IRF7) relative expression in ADAR1^WT (Black) and ADAR1^KD (Gray) patient-derived colorectal cancer cells (CRCs) treated with 5-AZA-CdR analyzed by qRT-PCR. Data are mean±s.e.m. (n=3 from three independent experiments). *P<0.05, **P<0.01, ****P<0.0001, Sidak-corrected two-way ANOVA.
# C, Interferon-responsive gene expression in ADAR1^WT mock-treated (MT), 5-AZA-CdR treated, ADAR1^KD NT and ADAR1^KD p(I:C) transfected samples collected 5 days, 14 days and 24 days post-treatment, measured by RNA-seq.
# D, Kinetics of interferon stimulated genes (ISG15, DDX58 and IRF7) relative expression in ADAR1^WT (Black) and ADAR1^KD (Gray) patient-derived CRCs transfected with p(I:C), analyzed by qRT-PCR. Data are mean±s.e.m. **P<0.01, ****P<0.0001, Sidak-corrected two-way ANOVA.
# F, Interferon stimulated genes (ISG15, DDX58 and IRF7) relative expression in CTRL (LUC) (Black) and ADAR1^p150CE (Gray) patient-derived CRCs treated with 5-AZA-CdR, analyzed by qRT-PCR. Data are mean±s.e.m. **P<0.01, ***P<0.001, Sidak-corrected two-way ANOVA.
# G, IFN enrichment score in CTRL(LUC) Mock-treated, 5-AZA-CdR treated, ADAR1-p150 overexpressing NT and ADAR1-p150 overexpressing 5-AZA-CdR treated samples collected 5 days post-treatment and measured by RNA-seq.
# as §1
# MAVS = MAVS aggregation by SDS-AGE; assay type: cell-based, human; conditions: ADAR1-depleted, mitochondrial fraction of cell lysates
# Excerpt: J, MAVS aggregation analyzed by SDS-AGE and MAVS protein level analyzed by SDS-PAGE. VDAC served as a loading control in SDS-PAGE.
# as §1
compound,measurement,setting,value
Nc1ncn([C@H]2C[C@H](O)[C@@H](CO)O2)c(=O)n1 [5-AZA-CdR],expression of IFN stimulated genes (ISGs),[1],enhanced upon ADAR1 depletion
same,H3K4me3 and H3K27ac levels directly upstream of treatment-induced immunogenic IR-Alus,[2],"elevated levels of H3K4me3, but not H3K27ac"
same,anti-tumour activity,[3]; ADAR1^KDA/B cells,remarkable anti-tumour activity
same,anti-tumour activity,[3]; wildtype cells,very limited anti-tumour activity
same,type I interferon response (GSEA),"[4]; ADAR1-depleted vs wild-type samples, both treated with 5-AZA-CdR",the most enriched pathway
same,persistence of enhanced interferon/ISG response,"[4]; ADAR1-depleted vs wild-type, after initial treatment",persisted as long as twenty-four days after initial treatment
same,viral mimicry (expression of ISGs and dsRNA formation),[4]; CRC cells overexpressing ADAR1p150,rescues the ability of 5-AZA-CdR to induce viral mimicry
same,MAVS activation (aggregation),MAVS,enhanced MAVS activation
